According to ChEMBL document CHEMBL6120940, “Discovery of N-Aryl-N'-[4-(aryloxy)cyclohexyl]squaramide-Based Inhibitors of LXR/SREBP-1c Signaling Pathway Ameliorating Steatotic Liver Disease: Navigating the Role of SIRT6 Activation” (J Med Chem, 2024):
Active and inactive are the calls of the source.

Legend:
[1] = MRT infinity in 16 hrs fasted ICR mouse at 20 mg/kg, po measured upto 8 hrs by LC-MS/MS analysis; type: ADME, organism-based; conditions: in vivo
[2] = MRT infinity in 16 hrs fasted ICR mouse at 2 mg/kg, iv measured upto 8 hrs by LC-MS/MS analysis; type: ADME, organism-based; conditions: in vivo
[3] = tested on: HepG2; assay: Downregulation of LXRalpha expression level in nucleus of human HepG2 cells at 10 uM preincubated with compound for 30 mins followed by T0901317 addition and measured after 24 hrs by immunoblot analysis; type: functional, cell-based; conditions: time 24.5 hrs
[4] = Cmax in 16 hrs fasted ICR mouse at 20 mg/kg, po measured upto 8 hrs by LC-MS/MS analysis; type: ADME, organism-based; conditions: in vivo
[5] = tested on: HepG2; assay: Downregulation of SCD mRNA level in human HepG2 cells at 10 uM pretreated with compound for 30 mins followed by T0901317 addition and measured after 12 hrs by RT-qPCR analysis; type: functional, cell-based; conditions: time 12.5 hrs
[6] = tested on: HepG2; assay: Downregulation of ACACA level in human HepG2 cells at 10 uM preincubated for 30 mins followed by OSS128167 addition and measured after 12 hrs; type: functional, cell-based; conditions: time 12.5 hrs
[7] = tested on: HepG2; assay: Downregulation of ACACA mRNA level in human HepG2 cells at 10 uM pretreated with compound for 30 mins followed by T0901317 addition and measured after 12 hrs by RT-qPCR analysis; type: functional, cell-based; conditions: time 12.5 hrs
[8] = tested on: Mus musculus; assay: Anti-lipogenic activity against high fat died induced male C57BL/6J mouse obesity model assessed as decrease in hepatic fat content at 15 mg/kg, po administered three times per week and measured for 5 weeks by Oil red O staining based analysis; type: functional, organism-based
[9] = biological target: T1, Sterol regulatory element-binding protein 1 (Homo sapiens) (UniProt P36956); assay: Inhibition of SREBP-1c transcriptional activity in human HepG2 cells expressing LXRalpha/RXRalpha assessed as reduction in SRE-luciferase level at 10 uM pretreated with compound for 30 mins followed by T0901317 addition and measured after 12 hrs by Dual-Glo luciferase assay relative to control; type: cell-based; conditions: time 12.5 hrs
T1 sequence (whole entry): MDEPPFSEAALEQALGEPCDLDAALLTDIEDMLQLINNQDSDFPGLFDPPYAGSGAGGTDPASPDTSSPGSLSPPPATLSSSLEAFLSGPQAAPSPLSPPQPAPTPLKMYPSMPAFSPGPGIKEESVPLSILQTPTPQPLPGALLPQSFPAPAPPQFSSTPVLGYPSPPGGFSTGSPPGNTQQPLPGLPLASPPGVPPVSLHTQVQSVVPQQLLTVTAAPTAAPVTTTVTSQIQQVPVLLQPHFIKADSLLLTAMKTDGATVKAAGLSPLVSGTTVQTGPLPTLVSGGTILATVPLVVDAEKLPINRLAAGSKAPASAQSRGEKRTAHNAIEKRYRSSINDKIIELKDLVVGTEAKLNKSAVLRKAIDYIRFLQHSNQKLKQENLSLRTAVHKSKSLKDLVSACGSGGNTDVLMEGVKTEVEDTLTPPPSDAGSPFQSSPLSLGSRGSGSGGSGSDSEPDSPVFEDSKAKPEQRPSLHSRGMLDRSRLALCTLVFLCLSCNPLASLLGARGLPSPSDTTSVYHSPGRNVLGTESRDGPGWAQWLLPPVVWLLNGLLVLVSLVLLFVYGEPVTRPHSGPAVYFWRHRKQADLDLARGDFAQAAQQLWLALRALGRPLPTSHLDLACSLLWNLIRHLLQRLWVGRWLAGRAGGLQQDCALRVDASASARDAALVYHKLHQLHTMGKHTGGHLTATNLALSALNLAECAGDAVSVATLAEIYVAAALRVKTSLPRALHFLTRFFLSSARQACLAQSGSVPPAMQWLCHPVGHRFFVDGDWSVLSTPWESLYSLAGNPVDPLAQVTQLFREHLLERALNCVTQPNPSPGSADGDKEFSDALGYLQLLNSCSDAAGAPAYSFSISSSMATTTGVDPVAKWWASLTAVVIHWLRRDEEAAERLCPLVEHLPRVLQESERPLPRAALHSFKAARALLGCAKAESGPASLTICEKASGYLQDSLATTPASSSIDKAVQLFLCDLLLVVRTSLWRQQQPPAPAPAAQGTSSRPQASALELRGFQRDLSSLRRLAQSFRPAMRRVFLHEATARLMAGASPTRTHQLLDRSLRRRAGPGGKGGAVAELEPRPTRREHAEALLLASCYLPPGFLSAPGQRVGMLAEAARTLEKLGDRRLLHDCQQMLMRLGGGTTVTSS

[10] = tested on: HepG2; assay: Downregulation of acetylated histone H3K9 level in human HepG2 cells preincubated for 30 mins followed by GW3965 addition and measured after 12 hrs; type: functional, cell-based; conditions: dose 5-10 µM, time 12.5 hrs
[11] = tested on: Mus musculus; assay: Anti-lipogenic activity against high fat died induced male C57BL/6J mouse obesity model assessed as reduction ALT level in serum at 15 mg/kg, po administered three times per week and measured for 5 weeks; type: functional, organism-based
[12] = tested on: HepG2; assay: Downregulation of FASN mRNA level in human HepG2 cells at 10 uM pretreated with compound for 30 mins followed by […] addition and measured after 12 hrs by RT-qPCR analysis; type: functional, cell-based; conditions: time 12.5 hrs
[13] = biological target: T1, Sterol regulatory element-binding protein 1 (Homo sapiens); assay: Inhibition of SREBP-1c transcriptional activity in human HepG2 cells expressing LXRalpha/RXRalpha assessed as reduction in SRE-luciferase level pretreated with compound for 30 mins followed by T0901317 addition and measured after 12 hrs by Dual-Glo luciferase assay; type: cell-based; conditions: dose 2.5-5 µM, time 12.5 hrs
[14] = Downregulation of SREBP-1c mRNA expression in human HepG2 cells at 10 uM pretreated with compound for 30 mins followed by T0901317 addition and measured after 12 hrs by RT-qPCR analysis relative to control; type: functional; conditions: time 12.5 hrs
[15] = tested on: HepG2; assay: Downregulation of FASN gene expression in human HepG2 cells in presence of T0901317 by RNA sequencing analysis; type: functional, cell-based
[16] = tested on: HepG2; assay: Downregulation of SREBP-1c expression level in nucleus of human HepG2 cells at 10 uM pretreated with compound for 30 mins followed by T0901317 addition and measured after 12 hrs by immunoblot analysis; type: functional, cell-based; conditions: time 12.5 hrs
[17] = tested on: HepG2; assay: Downregulation of ACACA expression level in human HepG2 cells at 5 to 10 uM pretreated with compound for 30 mins followed by T0901317 addition and measured after 12 hrs by RT-qPCR analysis; type: functional, cell-based; conditions: dose 5-10 µM, time 12.5 hrs
[18] = tested on: Hepatocyte; assay: Inhibition of LXR-induced fat accumulation in mouse Hepatocyte at 10 uM incubated for 30 mins followed by T0901317 addition by Oil red O staining based analysis; type: functional, cell-based
[19] = tested on: HepG2; assay: Downregulation of SREBP-1 level in human HepG2 cells transfected with SIRT6 SiRNA at 10 uM preincubated for 30 mins followed by T0901317 addition and measured after 12 hrs; type: functional, cell-based; conditions: time 12.5 hrs
[20] = tested on: Hepatocyte; assay: Inhibition of Fasn level in mouse hepatocyte at 10 uM preincubated with compound for 30 mins followed by T0901317 addition and measured after 12 hrs; type: functional, cell-based; conditions: time 12.5 hrs
[21] = tested on: HepG2; assay: Downregulation of acetylated histone H3K9 level in human HepG2 cells at 5 to 10 uM preincubated for 30 mins followed by OSS128167 addition and measured after 12 hrs; type: functional, cell-based; conditions: dose 5-10 µM, time 12.5 hrs

COc1ccccc1Nc1c(N[C@H]2CC[C@H](Oc3ccc([N+](=O)[O-])cc3)CC2)c(=O)c1=O
1.3 h: MRT inf [2]
2300 ng/mL: Cmax [4]
inactive: Activity [6] | Activity [19] | Activity [21]
active: Activity [3] | Activity [5] | Activity [7] | Activity [8] | Activity [10] Dose-dependent-effect | Activity [11] | Activity [12] | inhibition [13] Dose-dependent-effect | Activity [15] | Activity [16] | Activity [17] | inhibition [18] | inhibition [20]
27.7%: inhibition [9]
16.2%: Activity [14]
1.6 h: MRT inf [1]
